The text below walks through data of patent US20260297105A1, “RAF-MEK PROTEIN COMPLEX MODULATORS AND METHODS OF USE THEREOF” (GANDEEVA THERAPEUTICS, INC., priority 2023, published 2026).

pEC50, pIC50: −log10 of the molar value. Where two headings read alike, the source gives them in different places.

In assay [1] the target is T1, MEK1 (Homo sapiens, UniProt Q02750).
T1 construct: purchased SignalChem M02-14H
Kind of assay: MEK1 kinase cascade assay (ADP-Glo), inhibition of MEK1 kinase activity. In kind it is biochemical. The following applies: 25 nM BRAF, 6.25 nM MEK1, 0.5 μM ERK, 1 mM ATP; 20 min preincubation, 1 hr at 25° C.; read-out: BRAF ADP Glo kinase assay V3 (IC50). In short, it runs like this: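 Cascade format with ADP-Glo read-out: BRAF (25 nM) and compound, 1% DMSO, 20 mins at 25° C, then MEK1 6.25 nM, ERK1 0.5 μM, ATP 1 mM for 1 hr at 25° C in HEPES pH 7.5 buffer with MgCl2, CHAPS and DTT. Percent inhibition, scaled between DMSO and 1 μM Trametinib, was fit by 4-parameter logistic to give IC50 (2 replicate wells).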
(In general: ADP-Glo first removes unused ATP, then detects ADP through luciferase.)

Assay [2] concerns BRAF-MEK1. Kind of assay: BRAF-MEK TR-FRET assay, stabilization of MEK1 and BRAF interaction. It is filed as binding. The following applies: 4 nM BRAF, 10 nM MEK, 100 μM ATP, 1 hr at 25° C., read-out: BRAF-MEK TR-FRET Assay (EC50, fold stabilization). In short, it runs like this: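 Read-out is fold stabilization (treated FRET ratio/DMSO, Em 665/620 nm), fit 4-parameter for EC50 from 2 replicates. Compounds sat with 4 nM GST-BRAF and 10 nM in-house His-MEK1 1 h at 25° C (Tris pH 7.5, MgCl2, 100 μM ATP), then detection antibodies 1 h.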
On the technique in general: In TR-FRET formats the signal depends on donor and acceptor labels being close together.

The subject of assay [3] is NCI-H292 cells. The assay can be described thus: Cell viability assay (CellTiter-Glo), NCI-H292. It is filed as cell-based. The note with it: Homo sapiens, 72 hrs, read-out: Cell Viability Assay: IC50 Determination NCI-H292. On the procedure: Cell culture: HCTI 16, HT-29, and NCI-H292 cells were acquired from American Type Culture Collection (ATCC). HCT116 and HT-29 cells were maintained in ATCC-formulated McCoy's 5a Medium Modified supplemented with 10% fetal bovine serum, NCI-H292 cells were cultured in ATCC formulated RPMI-1640 supplemented with 10% fetal bovine serum. All cells were maintained at 37° C., 5% CO2.
Efficacy of exemplary compounds in inhibition of cell viability: HCT116 and HT-29 cells were plated at 4,000 cells per well and NCI-H292 cells were plated at 2,000 cells per well in their respective media in 384-well white, TC-treated plates (Corning). After 24 hours of incubation, the cells were treated with vehicle (DMSO) or test compounds (0.1% DMSO in final volume) for 72 hrs. The plate was equilibrated at room temperature for 10 mins followed by addition of a 1:1 volume of CellTiter-Glo® reagent (Promega). The contents were mixed for 2 mins on an orbital shaker to induce lysis. The plate was incubated at room temperature for 10 mins to stabilize luminescent signal before measuring luminescence on a Cytation5 microplate reader (Agilent). % inhibition as a function of compound concentration from 3 replicate wells was fit with a 4-parameter logistic curve using GraphPad Prism or CDD Vault to derive IC50 values.
In this table, for the BRAF ADP Glo kinase assay, “A” indicates IC50 of less than 5 nM; “B” indicates IC50 of between 5 nM to 50 nM; and “C” indicates IC50 of between 50 nM to 500 nM. “D” indicates IC50 of greater than 500 nM. For the BRAF-MEK TR-FRET assay, “A” indicates EC50 of less than 50 nM; “B” indicates EC50 of between 50 nM to 200 nM; and “C” indicates EC50 of between 200 nM to 1 μM. “D′” indicates EC50 of greater than 1 μM. For the AlphaLisa P-ERK assay, “A” indicates IC50 of less than 1 nM; “B” indicates IC50 of between 1 nM to 10 nM; and “C” indicates IC50 of between 10 nM to 100 nM. “D” indicates IC50 of greater than 100 nM. For the cell viability assay, “A” indicates IC50 of less than 1 nM; “B” indicates IC50 of between 1 nM to 10 nM; and “C” indicates IC50 of between 10 nM to 100 nM. “D” indicates IC50 of greater than 100 nM.
On the technique in general: Cellular ATP, detected with luciferase, serves as a proxy for viable cell number.

T1 sequence (Q02750 whole entry): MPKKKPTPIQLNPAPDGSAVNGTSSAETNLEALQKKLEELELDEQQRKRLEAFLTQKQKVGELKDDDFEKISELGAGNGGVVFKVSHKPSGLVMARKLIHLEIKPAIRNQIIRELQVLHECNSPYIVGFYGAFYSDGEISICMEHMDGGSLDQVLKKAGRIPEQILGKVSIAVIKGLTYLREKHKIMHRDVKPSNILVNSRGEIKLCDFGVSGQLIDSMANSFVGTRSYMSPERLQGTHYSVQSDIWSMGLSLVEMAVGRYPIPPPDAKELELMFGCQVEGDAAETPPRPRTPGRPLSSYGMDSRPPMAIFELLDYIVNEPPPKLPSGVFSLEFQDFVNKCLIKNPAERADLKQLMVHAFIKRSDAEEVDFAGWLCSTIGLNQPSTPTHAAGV
T1 sequence (P15056 445-723 partner limits assumed): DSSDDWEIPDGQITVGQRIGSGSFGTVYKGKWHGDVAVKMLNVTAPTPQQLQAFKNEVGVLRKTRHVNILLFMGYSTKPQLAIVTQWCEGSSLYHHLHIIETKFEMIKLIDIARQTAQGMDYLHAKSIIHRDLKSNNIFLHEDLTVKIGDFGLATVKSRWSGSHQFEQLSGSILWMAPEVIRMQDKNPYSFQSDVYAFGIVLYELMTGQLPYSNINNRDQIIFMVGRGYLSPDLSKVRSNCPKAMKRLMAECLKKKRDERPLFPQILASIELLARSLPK

Regarding `CNS(=O)(=O)Nc1nccc(CN2C(=O)Oc3cc(Oc4ncco4)c(F)cc3C23CCC3)c1F` [Compound 165, 6-fluoro-3-{[3-fluoro-2-(methylaminosulfonylamino)-4-pyridyl]methyl}-7-(1,3-oxazol-2-yloxy)-2H,3H-spiro[1,3-benzoxazine-4,1′-cyclobutan]-2-one], the values for the negative-log IC50 (pIC50) in assay [1] and in assay [3] were more than 8.30 and 8.00 to 9.00, respectively. Further, the pEC50 in assay [2] was more than 7.30.

On to `CNS(=O)(=O)Nc1cccc(CN2Cc3cc(C)c(OC(=O)N(C)C)cc3OC2=O)c1F` [Compound 112, 3-(2-fluoro-3-((N-methylsulfamoyl)amino)benzyl)-6-methyl-2-oxo-3,4-dihydro-2H-benzo[e][1,3]oxazin-7-yl dimethylcarbamate], for which the figures for the pIC50 in assay [1] and in assay [3] were more than 8.30 and 8.00 to 9.00, respectively. Besides, in assay [2], the pEC50 was 6.00 to 6.70.

Consider `CNS(=O)(=O)Nc1nccc(CN2C(=O)Oc3cc(Oc4ncco4)cc(F)c3C23CCC3)c1F` [Compound 169, 5-fluoro-3-{[3-fluoro-2-(methylaminosulfonylamino)-4-pyridyl]methyl}-7-(1,3-oxazol-2-yloxy)-2H,3H-spiro[1,3-benzoxazine-4,1′-cyclobutan]-2-one], for which the pIC50 (as a rule, the negative decadic logarithm of the IC50, by convention in mol/L) is 7.30 to 8.30 in assay [1] and 8.00 to 9.00 in assay [3]. In assay [2], the pEC50 was more than 7.30.

With `CNS(=O)(=O)Nc1cccc(CN2C(=O)Oc3cc(Oc4ncco4)ccc3[C@H]2C)c1F` (single isomer, unassigned) [Compound 79, (R)-3-({2-fluoro-3-(methylsulfamoyl)amino]phenyl}methyl)-4-methyl-7-(1,3-oxazol-2-yloxy)-3,4-dihydro-2H-1,3-benzoxazin-2-one or (S)-3-({2-fluoro-3-(methylsulfamoyl)amino]phenyl}methyl)-4-methyl-7-(1,3-oxazol-2-yloxy)-3,4-dihydro-2H-1,3-benzoxazin-2-one], the pIC50 is 7.30 to 8.30 in assay [1] and 7.00 to 8.00 in assay [3].

On to `COC1CCN(S(=O)(=O)Nc2cccc(CN3Cc4ccc(OC(=O)N(C)C)cc4OC3=O)c2F)C1` (stereo not drawn) [Compound 100, 3-(2-fluoro-3-((3-methoxypyrrolidine)-1-sulfonamido)benzyl)-2-oxo-3,4-dihydro-2H-benzo[e][1,3]oxazin-7-yl dimethylcarbamate], for which the negative-log IC50 (pIC50) in assay [1] is 7.30 to 8.30. Also, in assay [2], the pEC50 is 6.00 to 6.70.

For `CNS(=O)(=O)Nc1nccc(CN2C(=O)Oc3cc(Oc4cccnn4)cc(F)c3C23COC3)c1F` [Compound 178, 5-fluoro-3-{[3-fluoro-2-(methylaminosulfonylamino)-4-pyridyl]methyl}-7-(3-pyridazinyloxy)-2H, 3H-spiro[1,3-benzoxazine-4,3′-oxetan]-2-one], in assay [1], the pIC50 is 7.30 to 8.30. Moreover, the pEC50 in assay [2] was 6.00 to 6.70.

Regarding `CN(C)S(=O)(=O)Nc1cccc(CN2C(=O)Oc3cc(Oc4cccnn4)ccc3C23CCC3)c1F` [Compound 25, 3-{[3-(dimethylaminosulfonylamino)-2-fluorophenyl]methyl}-7-(3-pyridazinyloxy)-2H,3H-spiro[1,3-benzoxazine-4,1′-cyclobutan]-2-one], the negative-log IC50 (pIC50) in assay [1] was more than 8.30. Also, in assay [2], the pEC50 was more than 7.30.

For the molecule `CNS(=O)(=O)Nc1cccc(CN2Cc3cc(F)c(OC(=O)N(C)C)c(F)c3OC2=O)c1F` [Compound 96, 6,8-difluoro-3-(2-fluoro-3-((N-methylsulfamoyl)amino)benzyl)-2-oxo-3,4-dihydro-2H-benzo[e][1,3]oxazin-7-yl dimethylcarbamate], the pIC50 in assay [1] is more than 8.30. Further, the pEC50 in assay [2] was 6.70 to 7.30.

Take `CN(C)C(=O)Oc1ccc2c(c1)OC(=O)N(Cc1cccc(NS(=O)(=O)N3CCC(C(N)=O)C3)c1F)C2` (stereo not drawn) [Compound 28, 3-[(3-{[(3-carbamoylpyrrolidin-1-yl)sulfonyl]amino}-2-fluorophenyl)methyl]-2-oxo-3,4-dihydro-2H-1,3-benzoxazin-7-yl N,N-dimethylcarbamate]: the pIC50 in assay [1] is 7.30 to 8.30. Also, the pEC50 in assay [2] was 6.00 to 6.70.

As to `CN(C)C(=O)Oc1ccc2c(c1)OC(=O)N(Cc1cccc(NS(=O)(=O)N(C)C)c1F)C21CCC1` [Compound 33, 3-({3-[(dimethylsulfamoyl)amino]-2-fluorophenyl}methyl)-2-oxo-2,3-dihydrospiro[1,3-benzoxazine-4,1′-cyclobutan]-7-yl N,N-dimethyl carbamate], the pIC50 in assay [1] was 7.30 to 8.30. Moreover, the pEC50 in assay [2] was 6.70 to 7.30.

For `CNS(=O)(=O)Nc1cccc(CN2C(=O)Oc3cc(Oc4ncco4)c(F)cc3C23COC3)c1F` [Compound 73], the pIC50 in assay [1] is 7.30 to 8.30; in assay [3] it was 8.00 to 9.00.

For the molecule `CNS(=O)(=O)Nc1nccc(CN2C(=O)Oc3cc(Oc4cccnn4)cnc3C23CC3)c1F` [Compound 202, 2′-{[3-fluoro-2-(methylaminosulfonylamino)-4-pyridyl]methyl}-6′-(3-pyridazinyloxy)-2′H,3′H-4′-oxa-2′,8′-diazaspiro[cyclopropane-1,1′-naphthalen]-3′-one], the pIC50 in assay [1] is more than 8.30. Further, in assay [2], the pEC50 was more than 7.30.

With `CNS(=O)(=O)Nc1nccc(CN2C(=O)Oc3cc(Oc4ncco4)cc(F)c3C23COC3)c1F` [Compound 168, 5-fluoro-3-{[3-fluoro-2-(methylaminosulfonylamino)-4-pyridyl]methyl}-7-(1,3-oxazol-2-yloxy)-2H,3H-spiro[1,3-benzoxazine-4,3′-oxetan]-2-one], the pIC50 in assay [1] is 7.30 to 8.30. In assay [2], the pEC50 was 6.00 to 6.70.

Consider `CNS(=O)(=O)Nc1nccc(CN2C(=O)Oc3cc(Oc4ncco4)c(F)cc3C2C)c1F` (single isomer, unassigned) [Compound 185, 6-fluoro-3-{[3-fluoro-2-(methylaminosulfonylamino)-4-pyridyl]methyl}-4-methyl-7-(1,3-oxazol-2-yloxy)-3,4-dihydro-2H-1,3-benzoxazin-2-one], for which the negative-log IC50 (pIC50) in assay [1] is 7.30 to 8.30. Further, the pEC50 in assay [2] (60 min) is 6.70 to 7.30.

Consider `CNS(=O)(=O)Nc1cccc(CN2C(=O)Oc3cc(OC(=O)N(C)C)ccc3[C@H]2C)c1F` [Compound 153, 3-(2-fluoro-3-((N-methylsulfamoyl)amino)benzyl)-4-methyl-2-oxo-3,4-dihydro-2H-benzo[e][1,3]oxazin-7-yl dimethylcarbamate], for which, in assay [1], the negative-log IC50 (pIC50) was 7.30 to 8.30. Also, the pEC50 in assay [2] was 6.00 to 6.70.

`CNS(=O)(=O)Nc1cccc(CN2C(=O)Oc3cc(Oc4ncco4)ccc3C2(C)C)c1F` [Compound 74, 3-({2-fluoro-3-[(methylsulfamoyl)amino]phenyl}methyl)-4,4-dimethyl-7-(1,3-oxazol-2-yloxy)-3,4-dihydro-2H-1,3-benzoxazin-2-one]: the pIC50 in assay [1] was 7.30 to 8.30; in assay [3], 8.00 to 9.00.

For the molecule `CN(C)C(=O)Oc1ccc2c(c1)OC(=O)N(Cc1cccc(NS(=O)(=O)N3CCOCC3)c1F)C2` [Compound 110, 3-(2-fluoro-3-(morpholine-4-sulfonamido)benzyl)-2-oxo-3,4-dihydro-2H-benzo[e][1,3]oxazin-7-yl dimethylcarbamate], the pIC50 in assay [1] was 7.30 to 8.30. Also, in assay [2], the pEC50 was 6.00 to 6.70.

On to `CN(C)S(=O)(=O)Nc1cccc(CN2C(=O)Oc3cc(Oc4cccnn4)ccc3C2(C)C)c1F` [Compound 34, 3-{[3-(dimethylaminosulfonylamino)-2-fluorophenyl]methyl}-4,4-dimethyl-7-(3-pyridazinyloxy)-3,4-dihydro-2H-1,3-benzoxazin-2-one], for which the pIC50 in assay [1] is more than 8.30. For the same molecule, the pEC50 in assay [2] is 6.00 to 6.70.
